Results on 27 compounds are retold here after US10357481B2 (MERCK SHARP & DOHME CORP., priority 2015, dated 2019).

The assay deals with T1, human PDE2A1 (Homo sapiens, UniProt O00408).
T1 construct: GST; purchased BPS Bioscience (San Diego, Calif.) 60020; host or cells: insect cells
T1 sequence (O00408 1-920 isoform O00408-2): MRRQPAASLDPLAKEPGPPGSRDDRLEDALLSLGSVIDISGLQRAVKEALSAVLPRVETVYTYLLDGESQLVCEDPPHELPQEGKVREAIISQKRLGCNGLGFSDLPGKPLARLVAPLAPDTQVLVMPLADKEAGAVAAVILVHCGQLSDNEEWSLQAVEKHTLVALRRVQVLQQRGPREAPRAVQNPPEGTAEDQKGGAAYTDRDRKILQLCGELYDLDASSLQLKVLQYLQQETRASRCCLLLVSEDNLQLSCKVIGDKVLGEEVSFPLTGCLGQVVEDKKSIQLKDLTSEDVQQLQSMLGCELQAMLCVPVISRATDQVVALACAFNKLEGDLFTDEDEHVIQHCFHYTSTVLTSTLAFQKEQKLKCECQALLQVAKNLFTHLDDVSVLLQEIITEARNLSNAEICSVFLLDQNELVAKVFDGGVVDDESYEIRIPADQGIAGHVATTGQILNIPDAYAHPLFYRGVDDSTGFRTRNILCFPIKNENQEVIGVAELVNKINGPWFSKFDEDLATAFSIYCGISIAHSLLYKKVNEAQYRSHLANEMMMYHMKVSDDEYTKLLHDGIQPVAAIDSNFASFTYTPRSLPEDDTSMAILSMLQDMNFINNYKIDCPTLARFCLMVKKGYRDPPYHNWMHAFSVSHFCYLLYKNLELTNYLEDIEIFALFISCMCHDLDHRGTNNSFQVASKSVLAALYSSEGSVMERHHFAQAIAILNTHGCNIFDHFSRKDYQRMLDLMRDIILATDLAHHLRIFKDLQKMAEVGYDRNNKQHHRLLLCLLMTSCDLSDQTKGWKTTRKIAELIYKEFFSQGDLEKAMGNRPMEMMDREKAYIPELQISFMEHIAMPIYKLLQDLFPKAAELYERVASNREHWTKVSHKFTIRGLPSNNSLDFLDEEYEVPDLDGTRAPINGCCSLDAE
Briefly: IMAP FP PDE selectivity panel, human PDE2A1. It is filed as biochemical. To be noted: Lab B; read-out: Human PDE2 Ki (nM) Lab B. Here is the method:
Selectivity for PDE2, as compared to other PDE families, was assessed using the IMAP® technology. Human PDE10A2 enzyme was prepared from cytosolic fractions of transiently transfected HEK cells.
Assays for PDE 1 through 11 were performed in parallel at room temperature in 384-well microtiter plates with an incubation volume of 20.2 μL. Solutions of test compounds were prepared in DMSO and serially diluted with DMSO to yield 30 μL of each of ten solutions differing by 3-fold in concentration, at 32 serial dilutions per plate. […] A Labcyte POD 810 (Labcyte, Sunnyvale, Calif.) was used to dispense 200 nL from each well of the titration plate to make eleven copies of the assay plate for each titration, one copy for each PDE enzyme. A solution of each enzyme (dilution from aliquots, sufficient to produce 20% substrate conversion) and a separate solution of FAM-labeled cAMP or FAM-labeled cGMP from Molecular Devices (Sunnyvale, Calif., product # R7506 or cGMP#R7508), at a final concentration of 50 nM were made in the assay buffer (10 mM Tris HCl, pH 7.2, 10 mM MgCl2, 0.05% NaN3 0.01% Tween-20, and 1 mM DTT). Note that the substrate for PDE2 is 50 nM FAM cAMP containing 1000 nM of cGMP. The enzyme and the substrate were then added to the assay plates in two consecutive additions of 10 μL and then shaken to mix. The reaction was allowed to proceed at room temperature for 60 minutes. A binding solution was then made from the kit components, comprised of 80% Solution A, 20% Solution B and binding reagent at a volume of 1/600 the total binding solution. The enzymatic reaction was stopped by addition of 60 μL of the binding solution to each well of the assay plate. The plates were sealed and shaken for 10 seconds. The plates were incubated at room temperature for one hour, then the parallel and perpendicular fluorescence was measured using a Tecan Genios Pro plate reader (Tecan, Switzerland). […] The intrinsic PDE2 inhibitory activity of a compound which may be used in accordance with the present invention may be determined by these assays.
For orientation: Ki means the equilibrium dissociation constant of an inhibitor or competing ligand from its target. Take `Fc1cc(C2(Nc3cc(C(F)(F)F)nc4ncnn34)CC2)ccc1C(F)(F)F` [Example 82, N-{1-[3-Fluoro-4-(trifluoromethyl)phenyl]cyclopropyl}-5-(trifluoromethyl)-[1,2,4]triazolo[1,5-a]pyrimidin-7-amine]: the Ki stood at 10 nM.

On to `Cc1cc(NC2(c3ccc(C(F)(F)F)c(F)c3)CC2)n2nc(CF)nc2n1` [Example 197, N-(1-(3-Fluoro-4-(trifluoromethyl)phenyl)cyclopropyl)-2-(fluoromethyl)-5-methyl-[1,2,4]triazolo [1,5-a]pyrimidin-7-amine], for which the Ki worked out at 80 nM. For `Cc1cc(NC(c2ccc(C(F)F)cc2)C(C)(C)O)n2ncnc2n1` (single isomer, unassigned) [Example 108, (1S or R)-1-[4-(Difluoromethyl)phenyl]-2-methyl-1-[(5-methyl [1,2,4]triazolo [1,5-a]pyrimidin-7-yl)amino] propan-2-ol], the Ki is 49 nM. Take `Cc1cc(NC(c2ccc3c(c2)OC(F)(F)O3)C(C)(C)O)n2ncnc2n1` (single isomer, unassigned) [Example 113, (1R or S)-1-(2,2-Difluoro-1,3-benzodioxol-5-yl)-2-methyl-1-[(5-methyl[1,2,4]triazolo[1,5-a]pyrimidin-7-yl)amino]propan-2-ol]: the Ki turned out to be 93 nM. As for `Cc1cc(NC2(c3cccc(C(F)(F)F)c3F)COC2)n2ncnc2n1` [Example 200, N-(3-(2-Fluoro-3-(trifluoromethyl)phenyl)oxetan-3-yl)-5-methyl-[1,2,4]triazolo [1,5-a]pyrimidin-7-amine], the Ki is > 2960 nM. The result for `Cc1cc(N(C)C(c2ccc(OC(F)(F)F)c(F)c2)C(C)(C)O)n2ncnc2n1` (single isomer, unassigned) [Example 248, (S)- or (R)-1-(3-Fluoro-4-(trifluoromethoxy)phenyl)-2-methyl-1-(methyl(5-methyl-[1,2,4]triazolo [1,5-a]pyrimidine-7-yl)amino) propan-2-ol] reads > 2960 nM; that for `Cc1cc(N[C@H](C)c2ccc(SC(F)(F)F)cc2)n2ncnc2n1` [Example 10, 5-Methyl-N-[(1R)-1-{4-[(trifluoromethyl)sulfanyl]phenyl}ethyl][1,2,4]triazolo[1,5-a]pyrimidin-7-amine], 21 nM.

Turning to `CC(C)(C)[C@@H](Nc1cc(CO)nc2ncnn12)c1ccc(C(F)(F)F)c(F)c1` [Example 79, [7-({(1R)-1-[3-Fluoro-4-(trifluoromethyl)phenyl]-2,2-dimethylpropyl}amino)[1,2,4]triazolo[1,5-a]pyrimidin-5-yl]methanol], the Ki was 208 nM. As for `Cc1cc(NC2(c3ccc(S(F)(F)(F)(F)F)cc3)CC2)n2ncnc2n1` [Example 58, 5-Methyl-N-{1-[4-(pentafluoro-λ^6-sulfanyl)phenyl]cyclopropyl}[1,2,4] triazolo[1,5-a]pyrimidin-7-amine], the Ki came to 52 nM. Regarding `CC(C)(O)[C@@H](Nc1cncc2ncnn12)c1ccc(C(F)(F)F)cc1` [Example 287, (1S)-2-Methyl-1-([1,2,4]triazolo[1,5-a]pyrazin-5-ylamino)-1-[4-(trifluoromethyl)phenyl]propan-2-ol], the Ki amounted to 150 nM. Then `Cc1cc(N[C@@H](c2ccc(C3CC3)cc2)C2CC2)n2ncnc2n1` [Example 42, N-[(R)-Cyclopropyl(4-cyclopropylphenyl)methyl]-5-methyl[1,2,4]triazolo[1,5-a] pyrimidin-7-amine], with 20 nM. Take `Cc1cc(NC(c2ccc(C(C)(C)C)cc2)C(C)(C)O)n2ncnc2n1` (single isomer, unassigned) [Example 107]: the Ki came to 13 nM. As for `Cc1cc(N[C@@H](c2ccc(C3(C)CC3)cc2)C(C)C)n2ncnc2n1` [Example 24, 5-Methyl-N-{(1R)-2-methyl-1-[4-(1-methyl-cyclopropyl)phenyl]propyl} [1,2,4]triazolo[1,5-a]pyrimidin-7-amine], the Ki came to 26 nM.

On to `Cc1cc(NC2(c3ccc(C(F)(F)F)c(F)c3)CC2)n2nc(CO)nc2n1` [Example 196, (7-(1-(3-Fluoro-4-(trifluoromethyl)phenyl)cyclopropylamino)-5-methyl-[1,2,4]triazolo [1,5-a]pyrimidin-2-yl)methanol], for which the Ki is 321 nM. Consider `Cc1cc(NC(c2ccc(C(F)(F)F)cc2F)C(C)(C)O)n2ncnc2n1` (single isomer, unassigned) [Example 115, (1R or S)-1-[2-Fluoro-4-(trifluoromethyl)phenyl]-2-methyl-1-[(5-methyl [1,2,4]triazolo [1,5-a]pyrimidin-7-yl)amino] propan-2-ol], for which the Ki is 23 nM. The result for `Fc1cc(C2(Nc3cc(C(F)(F)C(F)(F)F)nc4ncnn34)CC2)ccc1C(F)(F)F` [Example 74, N-{1-[3-Fluoro-4-(trifluoromethyl)phenyl]cyclopropyl}-5-(pentafluoroethyl) [1,2,4]triazolo[1,5-a]pyrimidin-7-amine] reads 109 nM; that for `Fc1cc(C2(Nc3cc(C(F)F)cc4ncnn34)CC2)ccc1C(F)(F)F` [Example 274, 7-(Difluoromethyl)-N-(1-(3-fluoro-4-(trifluoromethy)phenyl)cyclopropyl)-[1,2,4]triazol-[1,5-a]pyridin-5-amine], 11 nM. Then `CC(C)(O)C(Nc1cc(C(F)(F)F)nc2ncnn12)c1ccc(CC(F)(F)F)cc1` (single isomer, unassigned) [Example 170, (1R or S)-2-Methyl-1-[4-(2,2,2-trifluoroethyl)phenyl]-1-{[5-(trifluoromethyl) [1,2,4]triazolo [1,5-a]pyrimidin-7-yl]amino} propan-2-ol], with > 2960 nM. On to `CC(C)(O)C(Nc1cc(C(F)(F)F)nc2ncnn12)c1ccc(C(F)(F)F)cc1Cl` (single isomer, unassigned) [Example 159, (1S or R)-1-[2-Chloro-4-(trifluoromethyl)phenyl]-2-methyl-1-{[5-(trifluoromethyl)[1,2,4]triazolo[1,5-a]pyrimidin-7-yl]amino}propan-2-ol], for which the Ki is > 2960 nM. Then `Cc1cc(NC(c2ccc(C(F)(F)F)cc2Cl)C(C)(C)O)n2ncnc2n1` (single isomer, unassigned) [Example 105, (1R or S)-1-[2-Chloro-4-(trifluoromethyl)phenyl]-2-methyl-1-[(5-methyl[1,2,4]triazolo[1,5-a]pyrimidin-7-yl)amino]propan-2-ol], with 38 nM; and `CC(C)(C)c1cc(NC(c2ccc(S(F)(F)(F)(F)F)cc2)C(C)(C)O)n2ncnc2n1` (single isomer, unassigned) [Example 151, (1R or S)-1-[(5-tert-Butyl[1,2,4]triazolol[1,5-a]pyrimidin-7-yl)amino]-2-methyl-1-[4-(pentafluoro-λ^6-sulfanyl)phenyl] propan-2-ol], with > 2960 nM. Then `CC(C)(O)C(Nc1cc(C(F)(F)F)nc2ncnn12)c1ccc(C(F)(F)F)cc1F` (single isomer, unassigned) [Example 174, (1R or S)-1-[2-Fluoro-4-(trifluoromethyl)phenyl]-2-methyl-1-{[5-(trifluoromethyl) [1,2,4]triazolo [1,5-a]pyrimidin-7-yl]amino} propan-2-ol], with 29 nM; and `C[C@@H](Nc1cc(CO)cc2ncnn12)c1ccc(C(F)(F)F)cc1` [Example 267, [5-({(1R)-1-[4-(Trifluoromethyl)phenyl]ethyl}amino)[1,2,4]triazolo[1,5-a]pyridin-7-yl] methanol], with 236 nM. The result for `CC(C)(O)[C@H](Nc1cc(C(F)(F)F)nc2ncnn12)c1ccc(S(F)(F)(F)(F)F)cc1` (single isomer, unassigned) [Example 178] reads 421 nM; that for `Cc1cc(NC2(c3ccc(C(F)(F)F)c(F)c3)CC2)n2nc(C(F)F)nc2n1` [Example 201, 2-(Difluoromethyl)-N-(1-(3-fluoro-4-(trifluoromethyl)phenyl)cyclopropyl)-5-methyl-[1,2,4]triazolo [1,5-a]pyrimidin-7-amine], 131 nM; that for `CC(C)(O)C(Nc1cc(C2CC2)nc2ncnn12)c1ccc(OC(F)(F)F)c(F)c1` (single isomer, unassigned) [Example 141, (1R or S)-1-[(5- Cyclopropyl [1,2,4]triazolo [1,5-a]pyrimidin-7-yl)amino]-1-[3-fluoro-4-(trifluoro-methoxy)phenyl]-2-methylpropan-2-ol], 877 nM. In the case of `Cc1cc(N[C@@H](c2ccc(SC(F)(F)F)c(F)c2)C2CC2)n2ncnc2n1` [Example 41, N-[(R)-Cyclopropyl{3-fluoro-4-[(trifluoromethyl)sulfanyl]phenyl}methyl]-5-methyl[1,2,4]triazolo[1,5-a] pyrimidin-7-amine], the Ki was 19 nM.
